# From patent US8258215B2, “Mixed alkyl-alkylaryl-phenyl phosphite polymer additive” (Dover Chemical Corporation, priority 2010, dated 2012)
# Like-named read-outs stand apart in the source and are kept apart here.
# Assays:
# estrogenic activity = assay: Estrogenic activity by in-vivo testing
# [1] = LLDPE; for High load Melt Flow Stability, 1st pass / High load Melt Flow Stability, 3rd pass / High load Melt Flow Stability, 5th pass: 190° C. (21.6 Kg), 900 ppm phosphite + 500 ppm Dovernox 76; for maintaining melt flow stability, in words: compared with TNPP (Table III)
# Experimental: (§1) The polyolefin powder (polyethylene, polypropylene or high density polyethylene) is dry blended with the stabilizer formulation using a Waring blender. […] The masterbatch is then added to a preheated co-rotating twin screw extruder where the plastic is homogeneously mixed. Extrusion is typically performed at 260° C. for polyethylene (LLDPE) and polypropylene (PP) and at 250° C. for high density polyethylene (HDPE). The extruded plastic is cooled into a cold water bath, completely dried, and pelletized. The collected polymer pellets are the result of the first pass extrusion and are the starting material for all subsequent test protocols. The isolated pellets are added to the extruder repeatedly to generate the third and fifth pass material.
# (§2) The melt flow rate was performed using the ASTM 1238-90b test method measured at 21.6 Kg/190° C. for LLDPE and HDPE compositions and at 2.16 Kg/230° C. for the PP compositions. The melt flow rate was complete on a Tinius Olsen extrusion plastometer.
# [2] = LLDPE; 900 ppm phosphite + 500 ppm Dovernox 76
# Experimental: as §1
# (§3) Color analysis was performed on compression molded films or plaques with a Hunter Lab Ulstrascan XE machine. Observations were made with a D65 illuminant and 10° observer. Yellowness Index measurements were made in accord with ASTM D1925-70.
# [3] = PP; 230° C. (21.6 Kg); phosphite 900 ppm
# Experimental: as §1, §2
# [4] = PP; phosphite 900 ppm
# Experimental: as §1, §3
# [5] = HDPE; 190° C. (21.6 Kg); phosphite 900 ppm
# Experimental: as §1, §2
# [6] = HDPE; 230° C.; phosphite 900 ppm
# Experimental: as §1, §3
Compound,estrogenic activity compared with nonylphenol (estrogenic activity),"High load Melt Flow Stability, 1st pass [1]","High load Melt Flow Stability, 3rd pass [1]","High load Melt Flow Stability, 5th pass [1]","YI (Yellowness Index) Color Stability, 1st pass [2]","YI (Yellowness Index) Color Stability, 3rd pass [2]","YI (Yellowness Index) Color Stability, 5th pass [2]","maintaining melt flow stability, in words [1]","High load Melt Flow Stability, 1st pass [3]","High load Melt Flow Stability, 3rd pass [3]","High load Melt Flow Stability, 5th pass [3]","Color Stability (YI), 1st pass [4]","Color Stability (YI), 3rd pass [4]","High load Melt Flow Stability, 1st pass [5]","High load Melt Flow Stability, 3rd pass [5]","High load Melt Flow Stability, 5th pass [5]","Color Stability (YI), 1st pass [6]","Color Stability (YI), 3rd pass [6]","Color Stability (YI), 5th pass [6]"
CC(C)(c1ccccc1)c1ccc(O)cc1 [para-cumylphenol],does not show comparable estrogenic activity to nonylphenol,,,,,,,,,,,,,,,,,,
"Mixed C10 alkyl, p-cumylphenyl phosphite [Example 3]",,17.1,13.4,12.2,−4.2,−2.9,−1.1,,,,,,,,,,,,
"Mixed C12-14 Alkyl, 2,4-dicumylphenyl Phosphite [Example 10]",,18.3,15.5,13.5,−6.1,−3.8,−2.4,,,,,,,,,,,,
"Mixed C12-14 alkyl, p-cumylphenyl phosphite [Example 2]",,17.7,15.7,14.0,−5.4,−3.5,−1.5,performed exceptionally well,24.2,33.7,37.9,7.2,10.4,22.7,22.2,17.2,1.2,5.9,10.2
"Mixed C12-18 alkyl, p-cumylphenyl phosphite [Example 7]",,18.5,16.1,14.6,−5.5,−3.6,−1.5,performed exceptionally well,24.2,34.2,44.4,7.0,10.0,23.6,22.2,17.1,−0.6,1.4,6.4
"Mixed C16-18 alkyl, p-cumylphenyl phosphite [Example 6]",,18.7,15.7,13.6,−3.8,−1.1,1.5,,,,,,,,,,,,
"Mixed C18 alkenyl, p-cumylphenyl phosphite [Example 4]",,18.1,14.8,13.4,−5.8,−3.8,−1.4,,,,,,,,,,,,
"tris(nonylphenyl)phosphite [TNPP, reference compound]",,18.1,16.1,14.4,−3.7,−1.7,0.4,,21.4,30.0,37.0,14.8,15.1,22.7,22.5,18.5,−0.4,4.9,9.3
